Measurements published in patent publication US20210292340A1, “CELL NECROSIS INHIBITOR, PREPARATION METHOD THEREFOR AND USE THEREOF” (SHANGHAI INSTITUTE OF ORGANIC CHEMISTRY, CHINESE ACADEMY OF …, priority 2018, published 2021).

Each molecule was assayed on Jurkat (FADD−/−) cells (assay: Inhibition of TNF-induced programmed Jurkat (FADD−/−) cell necrosis (Cell Titer-Glo)). Conditions: Homo sapiens, Jurkat, 20 h, TNF 10 ng/mL, intracellular ATP level, read-out: Cellular IC50 (M) Jurkat (FADD−/−).
Assay type: cell-based, human
Experimental: Two replicate wells were set for each concentration of each compound.
Jurkat (FADD^−/−) cells (human-derived peripheral blood leukemia T cell line, with FADD gene knocked out) were cultured in vitro. After growing to logarithmic growth phase, the cells were harvested, and centrifuged at 1000 rpm for 5 min. The supernatant was discarded, and the cells were resuspended in fresh medium and adjusted to a cell density of 5×10^5/mL. The cell suspension was added to the culture plate containing the drug (40 μL per well). In the treatment groups, 10 μL of TNF (tumor necrosis factor, final concentration 10 ng/mL) diluted with the cell culture medium was added to each well, and incubated for 20 h in a cell incubator (37° C., 5% CO2). Subsequently, 50 μL of Cell Titer-Glo solution was added to each well and incubated at room temperature for 10 min. Then, the luminescence was detected on BioTek plate reader to measure the intracellular ATP level. The effect of the test compounds in inhibiting TNF-induced cell necrosis was calculated from the full-activity well and background well (with the untreated DMSO control well as 100% cell viability), and the half inhibitory concentration (IC50) of the compound was calculated by Graphpad Prism statistical software.

| Structure (SMILES) | IC50 |
| --- | --- |
| CN1C(=O)[C@@H](NC(=O)c2n[nH]c(Cc3ccc(F)cc3)n2)COc2cc3nccnc3cc21 [RIP1-207] | 4.88e-09 M |
| CN1C(=O)[C@@H](NC(=O)c2cnc(Cc3ccccc3)[nH]2)CSc2cc3c(ccn3C)cc21 [RIP1-050] | 4.92e-07 M |
| CN1C(=O)[C@@H](NC(=O)c2n[nH]c(Cc3ccc(F)cc3)n2)COc2cc3occc3cc21 [RIP1-174] | 1.3e-08 M |
| CN1C(=O)[C@@H](NC(=O)c2cn(Cc3ccccc3)nn2)CSc2cc3occc3cc21 [RIP1-040] | 3.6e-10 M |
| Cc1ccc(Cc2cc(C(=O)N[C@H]3CSc4cc5c(ccn5C)cc4N(C)C3=O)n(C)n2)cc1 [RIP1-057] | > 2e-06 M |
| CN1C(=O)[C@@H](NC(=O)c2cn(Cc3ccccc3)nn2)CSc2cc3[nH]ccc3cc21 [RIP1-042] | 1.93e-09 M |
| CN1C(=O)[C@@H](NC(=O)c2cn(Cc3ccccc3)nn2)COc2cc3nccnc3cc21 [RIP1-130] | 5.43e-08 M |
| CN1C(=O)[C@@H](NC(=O)c2cn(Cc3ccccc3)cn2)CSc2ccc3cnccc3c21 [RIP1-104] | 7.4e-10 M |
| CN1C(=O)[C@@H](NC(=O)c2nccc(Oc3ccccc3)n2)COc2cc3nccnc3cc21 [RIP1-215] | 3.45e-07 M |
| CN1C(=O)[C@@H](NC(=O)c2n[nH]c(Cc3ccccc3)n2)COc2ccccc21 [GSK2982772, reference compound] | 9.7e-10 M |
| CN1C(=O)[C@@H](NC(=O)c2n[nH]c(Cc3ccccc3)n2)COc2ccc3cccnc3c21 [RIP1-148] | 1.07e-08 M |
| CN1C(=O)[C@@H](NC(=O)c2cncn2Cc2ccccc2)CSc2cc3c(ccn3C)cc21 [RIP1-054] | > 2e-06 M |
| CN1C(=O)[C@@H](NC(=O)c2cn(Cc3ccccc3)nn2)COc2cc3[nH]ccc3cc21 [RIP1-115] | 3.48e-09 M |
| CN1C(=O)[C@@H](NC(=O)c2n[nH]c(Cc3ccc(F)cc3)n2)COc2cc3[nH]nnc3cc21 [RIP1-167] | 1.6e-06 M |
| CN1C(=O)[C@@H](NC(=O)c2ncn(Cc3ccccc3)n2)CSc2cc3c(ccn3Cc3ccccc3)cc21 [RIP1-086] | > 2e-06 M |
| CN1C(=O)[C@@H](NC(=O)c2ccc(Oc3ccccc3)cn2)COc2ccc3ncccc3c21 [RIP1-196] | > 2e-05 M |
| CN1C(=O)[C@@H](NC(=O)c2cnc(Cc3ccccc3)o2)CSc2cc3c(ccn3Cc3ccccc3)cc21 [RIP1-087] | > 2e-06 M |
| CN1C(=O)[C@@H](NC(=O)c2nnc(Cc3ccccc3)[nH]2)COc2cc3[nH]nnc3cc21 [RIP1-143] | 2.06e-07 M |
| CN1C(=O)[C@@H](NC(=O)c2nnn(Cc3ccccc3)n2)CSc2cc3c(ccn3C)cc21 [RIP1-058] | 2.53e-10 M |
| CN1C(=O)[C@@H](NC(=O)c2n[nH]c(Cc3ccccc3)n2)COc2cc3ncnc(O)c3cc21 [RIP1-187] | 2.59e-07 M |
| CN1C(=O)[C@@H](NC(=O)c2cc(Oc3ccccc3)ccn2)COc2cc3occc3cc21 [RIP1-180] | 2.66e-10 M |
| CN1C(=O)[C@@H](NC(=O)c2cn(Cc3ccccc3)cn2)CSc2cc3c(ccn3Cc3ccccc3)cc21 [RIP1-088] | > 2e-06 M |
| CN1C(=O)[C@@H](NC(=O)c2cnn(Cc3ccccc3)c2)CSc2cc3c(ccn3C)cc21 [RIP1-010] | 9.6e-08 M |
| CN1C(=O)[C@@H](NC(=O)c2cn(Cc3ccccc3)nn2)COc2cc3[nH]c(C(F)(F)F)nc3cc21 [RIP1-078] | 3.11e-08 M |

| Structure (SMILES) | IC50 |
| --- | --- |
| CN1C(=O)[C@@H](NC(=O)c2nnn(Cc3ccccc3)n2)COc2cc3[nH]c(=O)[nH]c3cc21 [RIP1-075] | 4.73e-10 M |
| CN1C(=O)[C@@H](NC(=O)c2cncc(Oc3ccccc3)c2)COc2ccc3ncccc3c21 [RIP1-193] | 2.95e-07 M |
| Cc1nc2cc3c(cc2[nH]1)OC[C@H](NC(=O)c1nnn(Cc2ccccc2)n1)C(=O)N3C [RIP1-071] | 1.71e-08 M |
| CN1C(=O)[C@@H](NC(=O)c2cc(Cc3ccccc3)on2)CSc2ccc3ncccc3c21 [RIP1-096] | 1.38e-09 M |
| CN1C(=O)[C@@H](NC(=O)c2cn(Cc3ccccc3)cn2)CSc2cc3occc3cc21 [RIP1-036] | 1.8e-10 M |
| CN1C(=O)[C@@H](NC(=O)c2nc(Cc3ccccc3)n[nH]2)COc2cc3[nH]c(=O)[nH]c3cc21 [RIP1-076] | > 2e-06 M |
| CN1C(=O)[C@@H](NC(=O)c2nnc(Cc3ccccc3)[nH]2)COc2cc3[nH]ncc3cc21 [RIP1-023] | 2.54e-09 M |
| CN1C(=O)[C@@H](NC(=O)c2cc(Nc3ccccc3)ccn2)COc2ccc3ncccc3c21 [RIP1-200] | 8.18e-08 M |
| CN1C(=O)[C@@H](NC(=O)c2cc(Oc3ccccc3)ccn2)COc2cc3[nH]ncc3cc21 [RIP1-190] | 1.44e-10 M |
| CN1C(=O)[C@@H](NC(=O)c2ncn(Cc3ccccc3)n2)CSc2ccc3ncccc3c21 [RIP1-093] | 1.15e-09 M |
| CN1C(=O)[C@@H](NC(=O)c2cc(Cc3ccccc3)on2)CSc2ccc3cnccc3c21 [RIP1-106] | 7.47e-10 M |
| CN1C(=O)[C@@H](NC(=O)c2cc(Oc3cccc(F)c3)ccn2)COc2ccc3ncccc3c21 [RIP1-204] | 3.04e-09 M |
| CN1C(=O)[C@@H](NC(=O)c2cc(Oc3ccccc3)ccn2)COc2cc3[nH]nnc3cc21 [RIP1-181] | 5.92e-10 M |
| COc1ncnc2cc3c(cc12)N(C)C(=O)[C@@H](NC(=O)c1n[nH]c(Cc2c(F)cc(F)cc2F)n1)CO3 [RIP1-157] | 2.49e-07 M |
| CN1C(=O)[C@@H](NC(=O)c2nnc(Cc3ccccc3)o2)CSc2cc3[nH]ccc3cc21 [RIP1-041] | 3.79e-10 M |
| CN1C(=O)[C@@H](NC(=O)c2cnnn2Cc2ccccc2)CSc2cc3[nH]ccc3cc21 [RIP1-051] | > 2e-06 M |
| COc1ncnc2cc3c(cc12)N(C)C(=O)[C@@H](NC(=O)c1n[nH]c(Cc2c(F)cccc2F)n1)CO3 [RIP1-156] | 2.8e-08 M |
| CN1C(=O)[C@@H](NC(=O)c2cnc(Cc3ccccc3)o2)COc2cc3[nH]c(C(F)(F)F)nc3cc21 [RIP1-079] | > 2e-06 M |
| CN1C(=O)[C@@H](NC(=O)c2ncn(Cc3ccccc3)n2)CSc2cc3c(ccn3C)cc21 [RIP1-012] | 1.22e-09 M |
| CN1C(=O)[C@@H](NC(=O)c2nnc(Oc3ccccc3)[nH]2)COc2cc3ncoc3cc21 [RIP1-211] | 2.72e-07 M |
| CN1C(=O)[C@@H](NC(=O)c2cn(Cc3ccccc3)nn2)CSc2ccc3ncccc3c21 [RIP1-095] | 9.85e-09 M |
| CN1C(=O)[C@@H](NC(=O)c2n[nH]c(Cc3ccccc3)n2)CSc2cc3[nH]ccc3cc21 [RIP1-001] | 1.38e-09 M |
| CN1C(=O)[C@@H](NC(=O)c2cnn(Cc3ccccc3)c2)COc2cc3[nH]c(=O)[nH]c3cc21 [RIP1-074] | > 2e-06 M |
| Cc1ccc(Cc2cc(C(=O)N[C@H]3CSc4cc5c(ccn5C)cc4N(C)C3=O)nn2C)cc1 [RIP1-056] | 4.15e-08 M |

| Structure (SMILES) | IC50 |
| --- | --- |
| CN1C(=O)[C@@H](NC(=O)c2nc(Cc3ccccc3)n(C)n2)COc2cc3ncoc3cc21 [RIP1-220] | > 2e-05 M |
| CN1C(=O)[C@@H](NC(=O)c2cn(Cc3ccccc3)cn2)COc2cc3nccnc3cc21 [RIP1-129] | 7.94e-07 M |
| CN1C(=O)[C@@H](NC(=O)c2n[nH]c(Cc3c(F)cc(F)cc3F)n2)COc2ccc3cnccc3c21 [RIP1-162] | 5.4e-08 M |
| CN1C(=O)[C@@H](NC(=O)c2n[nH]c(Cc3ccccc3)n2)COc2cc3ncoc3cc21 [RIP1-182] | 8.16e-10 M |
| CN1C(=O)[C@@H](NC(=O)c2ccnc(Oc3ccccc3)c2)COc2ccc3ncccc3c21 [RIP1-195] | 5.66e-06 M |
| CN1C(=O)[C@@H](NC(=O)c2cc(Oc3ccc(F)cc3)ccn2)COc2ccc3ncccc3c21 [RIP1-197] | 2.92e-08 M |
| CN1C(=O)[C@@H](NC(=O)c2cc(Oc3cccnc3)ccn2)COc2ccc3ncccc3c21 [RIP1-210] | 7.8e-09 M |
| CN1C(=O)[C@@H](NC(=O)c2cc(Cc3ccccc3)on2)COc2cc3[nH]ccc3cc21 [RIP1-116] | 5.16e-09 M |
| CN1C(=O)[C@@H](NC(=O)c2cnn(Cc3ccccc3)c2)CSc2cc3c(ccn3Cc3ccccc3)cc21 [RIP1-083] | > 2e-06 M |
| CN1C(=O)[C@@H](NC(=O)c2cn(Cc3ccccc3)nn2)CSc2cc3c(ccn3Cc3ccccc3)cc21 [RIP1-084] | > 2e-06 M |
| COc1ncnc2cc3c(cc12)N(C)C(=O)[C@@H](NC(=O)c1n[nH]c(Cc2cc(F)cc(F)c2)n1)CO3 [RIP1-176] | 6.9e-09 M |
| CN1C(=O)[C@@H](NC(=O)c2cn(Cc3ccccc3)nn2)CSc2ccc3cnccc3c21 [RIP1-105] | 3.22e-09 M |
| CN1C(=O)[C@@H](NC(=O)c2n[nH]c(Cc3ccc(F)cc3)n2)COc2ccc3ncccc3c21 [RIP1-171] | 1.4e-08 M |
| CN1C(=O)[C@@H](NC(=O)c2ccc(Nc3ccccc3)cn2)COc2ccc3ncccc3c21 [RIP1-201] | > 2e-05 M |
| CN1C(=O)[C@@H](NC(=O)c2cn(Cc3ccccc3)nn2)COc2cc3[nH]ncc3cc21 [RIP1-024] | 2.03e-09 M |
| CN1C(=O)[C@@H](NC(=O)c2cc(Oc3ccccc3)ccn2)COc2cc3ncnc(O)c3cc21 [RIP1-188] | 1.93e-07 M |
| CN1C(=O)[C@@H](NC(=O)c2cc(Oc3ccccc3)ccn2)COc2ccc3ncccc3c21 [RIP1-179] | 6.7e-10 M |
| CN1C(=O)[C@@H](NC(=O)c2cc(Cc3ccccc3)on2)CSc2cc3[nH]ccc3cc21 [RIP1-003] | 6.91e-10 M |
| CN1C(=O)[C@@H](NC(=O)c2nnc(Cc3cccc(F)c3)[nH]2)COc2cc3ocnc3cc21 [RIP1-217] | 1.38e-09 M |
| CN1C(=O)[C@@H](NC(=O)c2n[nH]c(Cc3c(F)cccc3F)n2)COc2cc3[nH]nnc3cc21 [RIP1-166] | 2.98e-07 M |
| CN1C(=O)[C@@H](NC(=O)c2nnc(Cc3ccccc3)[nH]2)COc2cc3[nH]ccc3cc21 [RIP1-112] | 1.22e-09 M |
| O=C(N[C@H]1COc2ccc3cccnc3c2NC1=O)c1n[nH]c(Cc2ccccc2)n1 [RIP1-149] | > 2e-06 M |
